Laboratory results as given in the NIST ThermoML archive (doi:10.1021/je700460w).
± gives the expanded uncertainty stated by the source. One block for each compound: values may come before it.

How the values were obtained:
[1] = 303.15 K; 101 kPa; Liquid
[2] = xn = mol fraction of the nth substance listed; conditions: 303.15 K, 101 kPa, Liquid

SMILES: CC(C)CC(C)(C)C [2,2,4-trimethylpentane] + CCCO
mass density ([2]; x2 = 0): 683.74 ± 0.43 kg/m3
mass density ([2]; x2 = 0.0484): 685.75 ± 0.43 kg/m3
mass density ([2]; x2 = 0.0993): 688.26 ± 0.43 kg/m3
mass density ([2]; x2 = 0.2038): 694.24 ± 0.42 kg/m3
mass density ([2]; x2 = 0.2983): 700.64 ± 0.42 kg/m3
mass density ([2]; x2 = 0.4): 708.63 ± 0.41 kg/m3
mass density ([2]; x2 = 0.5007): 717.82 ± 0.41 kg/m3
mass density ([2]; x2 = 0.5989): 728.33 ± 0.4 kg/m3
mass density ([2]; x2 = 0.6995): 741.12 ± 0.39 kg/m3
mass density ([2]; x2 = 0.7998): 756.21 ± 0.38 kg/m3
mass density ([2]; x2 = 0.8984): 774.29 ± 0.36 kg/m3
mass density ([2]; x2 = 0.9502): 785.01 ± 0.35 kg/m3

SMILES: CC(C)OC(C)C [diisopropyl ether] + CCCO
mass density ([2]; x1 = 0.0504): 790.59 ± 0.61 kg/m3
mass density ([2]; x1 = 0.0991): 785.96 ± 0.62 kg/m3
mass density ([2]; x1 = 0.2001): 775.66 ± 0.64 kg/m3
mass density ([2]; x1 = 0.2994): 766.52 ± 0.66 kg/m3
mass density ([2]; x1 = 0.4): 757.67 ± 0.68 kg/m3
mass density ([2]; x1 = 0.5018): 749.3 ± 0.69 kg/m3
mass density ([2]; x1 = 0.6006): 741.73 ± 0.71 kg/m3
mass density ([2]; x1 = 0.6995): 734.54 ± 0.72 kg/m3
mass density ([2]; x1 = 0.7994): 727.46 ± 0.73 kg/m3
mass density ([2]; x1 = 0.8981): 720.72 ± 0.75 kg/m3
mass density ([2]; x1 = 0.9498): 717.2 ± 0.75 kg/m3
mass density ([2]; x1 = 1): 713.51 ± 0.76 kg/m3

SMILES: CCCO [propan-1-ol] + CC(C)OC(C)C
mass density ([2]; x2 = 0): 796.55 ± 0.6 kg/m3

SMILES: CC(C)OC(C)C [diisopropyl ether] + CC(C)CC(C)(C)C
mass density ([2]; x1 = 0.0504): 684.87 ± 0.43 kg/m3
mass density ([2]; x1 = 0.102): 686.03 ± 0.43 kg/m3
mass density ([2]; x1 = 0.1985): 688.29 ± 0.43 kg/m3
mass density ([2]; x1 = 0.301): 690.84 ± 0.43 kg/m3
mass density ([2]; x1 = 0.3996): 693.42 ± 0.43 kg/m3
mass density ([2]; x1 = 0.5002): 696.27 ± 0.42 kg/m3
mass density ([2]; x1 = 0.6002): 699.34 ± 0.42 kg/m3
mass density ([2]; x1 = 0.7009): 702.6 ± 0.42 kg/m3
mass density ([2]; x1 = 0.7849): 705.55 ± 0.41 kg/m3
mass density ([2]; x1 = 0.9013): 709.78 ± 0.41 kg/m3
mass density ([2]; x1 = 0.9512): 711.68 ± 0.41 kg/m3
mass density ([2]; x1 = 1): 713.51 ± 0.41 kg/m3

SMILES: CC(C)OC(C)C [diisopropyl ether]
mass density [1]: 713.51 ± 0.76 kg/m3

The remaining lines, values ahead:

mass density [1]: 683.74 ± 0.43 kg/m3
SMILES: CC(C)CC(C)(C)C [2,2,4-trimethylpentane]

mass density ([2]; x1 = 1): 796.55 ± 0.34 kg/m3
SMILES: CCCO [propan-1-ol] + CC(C)CC(C)(C)C

mass density [1]: 796.55 ± 0.6 kg/m3
SMILES: CCCO [propan-1-ol]

mass density ([2]; x2 = 0): 683.74 ± 0.43 kg/m3
SMILES: CC(C)CC(C)(C)C [2,2,4-trimethylpentane] + CC(C)OC(C)C
